Data reported in patent publication US8741951B2, “Non-steroidal compounds for androgen receptor modulation” (CNR—Consiglio Nazionale delle Ricerche, priority 2009, dated 2014).
Entries after “also recorded” stand apart in the source; their conditions may differ.

Tests used:
[1] = test system: normal stem cells derived from human peripheral blood stem cells; assay: Colony-forming cell assay (GM-CFU); format: cell-based
Protocol: The colony-forming cell assay was used as previously described [Matta M R, Mangianti S, Rizzi S, Ratta M, Campanini E, Fortuna A, et al. Pharmacological purging of minimal residual disease from peripheral blood stem cell collections of acute myloblastic leukaemia patients: preclinical studies. Exp Hematol 1997; 25:1261-1269]. In brief, for each molecule, 5×10^4 cells were plated in duplicate in a complete culture medium (MethoCult H4434, StemCell Technologies, Vancouver, Canada) containing different concentrations (0.2, 2, and 20 μmol/l) of the compound. After 14 days of incubation in a humidified atmosphere of 5% CO2 at the temperature of 37° C., granulocyte macrophage colony-forming unit (GM-CFU) aggregates of more than 50 cells were counted. Control cells were incubated under the same conditions but in drug-free medium.

[2] = test system: DU145 cell line; assay: SRB cytotoxicity, DU145; format: cell-based, human; settings: DU145 (no AR), 144 h, up to 20 μM
Protocol: (§1) FIGS. 16-25: cytotoxic effect of compounds (R)-XXIII-2, (R)-XXIII-3, (R)-XXIII-4, (R)-XXIII-5, (R)-XXIII-6, (R)-XXIII-7, (R)-XXIII-8, (R)-XXIII-9, (R)-XXIII-10, (R)-XXIV-9 on PC-3 and DU-145 cell lines at different concentration (0.02, 0.2, 2, 20 μM) after 144 h exposure. On the x-axis is reported the concentration, while on the y-axis is reported the inhibition of the net growth (% net growth).
(§2) Sulforhodamine B (SRB) assay was used according to the method by Skehan et al. (JNCI, 1990). Briefly, cells were collected by trypsinization, counted and plated at a density of 5,000 cells/well in 96-well flat-bottomed microtiter plates (100 μl of cell suspension/well). In the chemosensitivity assay, experiments were run in octuplicate, and each experiment was repeated three times. The optical density (OD) of cells was determined at a wavelength of 490 nm by a colorimetric plate reader.
(§3) If ODtreated is above ODzero, treatment has induced a cytostatic effect, whereas if ODtreated is below ODzero, cell killing has occurred. The ODzero depicts the cell number at the moment of drug addition, the ODcontrol reflects the cell number in untreated wells and the ODtreated reflects the cell number in treated wells on the day of the assay.

[3] = test system: LNCaP cells; assay: SRB in vitro chemosensitivity assay, LNCaP; format: cell-based
Protocol: The cell lines were maintained as a monolayer at 37° C. and subcultured weekly. Culture medium was composed of RPMI 1640 supplemented with 10% fetal calf serum and 1% glutamine (Mascia Brunelli s.p.a., Milan, Italy). Cells were used in the exponential growth phase in all the experiments.
Compounds were dissolved in acetone or DMSO (AITES) ([…]) and stored at −20° C. The cell culture containing acetone at the highest concentration was used as the control.
as §2, §3
FIGS. 2-11 show the cytotoxic activity of the derivative compounds of the invention on the LNCaP and LNCaP-AR cell lines. The authors examined the antitumour activity of the compounds for which the synthesis is described above, in the hormone-sensitive prostate cancer cell line LNCaP and in its derivative cell line LNCaP-AR, expressing high level of AR and with hormone refractory prostate cancer (HRPC) features. The novel compounds were tested at the increasing concentrations of […], 0.2, 2.0, and 20.0 μM. The highest dose used was chosen on the basis of the clinically achievable peak plasma concentration reported in the literature for bicalutamide (Cockshott I D. Clin Pharmacokinet. 2004; 43(13): 855-78). After 144-hr exposure time the cytotoxic effect of the molecules was calculated according to the method of Monks et al. (Monks A, Scudiero D, Skehan P, et al. Feasibility of a high-flux anticancer drug screen using a diverse panel of cultured human tumor cell lines. J Natl Cancer Inst. 1991; 83: 757-66.)

[4] = test system: human hepatoblastoma cell line HepG2; assay: Cytotoxic activity on HepG2 (hepato-toxicity); format: cell-based; settings: HepG2, up to highest concentration tested
Protocol: as §2, §3
FIG. 27-36 show the cytotoxic activity of the drugs on the human hepatoblastoma cell line HepG2. The authors evaluated in vitro the potential hepato-toxicity of some of the novel compounds on HepG2 cell line, a human hepatoblastoma cell line that retains the specialized function of normal hepatocytes [Knowles B B, Howe C C, Aden D P. Human hepatocellular carcinoma cell lines secretes the major plasma proteins and hepatitis B surface antigen. Science 1980, 209:497-499; Aden D P, Vogel A, Plortkin S, Damjanov I, Knowles B B. Controlled synthesis of HBS Ag in a differentiated human liver carcinoma-derived cell line. Nature, 1979, 282:615-616].

[5] = test system: PC-3 cell line; assay: SRB cytotoxicity, PC-3; format: cell-based, human; settings: PC-3 (no AR), 144 h, up to 20 μM
Protocol: as §1, §2, §3

`N#Cc1ccc(NC(=O)[C@](O)(Cc2cccs2)CS(=O)(=O)c2ccc(F)cc2)cc1C(F)(F)F` [(R)-XXIII-6] was tested. Which “inhibition of clonogenic growth of normal stem cells (mielotoxicity), in words” value ([1]; 0.2, 2, 20 μmol/l, 14 days) did it give?
Its value is “does not seem to exert significant mielotoxicity; also recorded: weak cytostatic activity”.

And the GI50 ([1]; hematopoietic precursors, highest concentration tested 20 μmol/l)?
The GI50 was “not being able to reach GI50 value”.

And the “cytotoxic activity, in words” value [2]?
The value was “negligible cytotoxic activity”.

And the GI50 ([3]; Homo sapiens, LNCaP, 144 h)?
The GI50 was 8.9 µM.

What about the LC50 ([3]; LNCaP cells, 144 h exposure, up to 20 μM) of the same compound?
The LC50 was “n.r”.

And the “cytotoxic effect (cytostatic / cytocidal), in words” value ([3]; LNCaP, 144 h, up to 20 μM)?
The value was “suppress completely the cell growth”.

And the “hepato-toxicity, in words” value [4]?
The value was “did not display toxicity”.

What about the “cytotoxic activity, in words” value [5] of the same compound?
The value was “negligible cytotoxic activity”.
